Each block holds one compound with its values, some of them ahead of it.
Key:
[1] = Oral Bioavailability in rat; format: ADME, organism-based; conditions: in vivo
[2] = Half life in rat; format: ADME; conditions: in vivo
[3] = Cmax in iv dosed rat; format: ADME, organism-based; design: route iv; conditions: in vivo
[4] = Tmax in iv dosed rat; format: ADME, organism-based; conditions: in vivo
[5] = AUC in iv dosed rat; format: ADME, organism-based; design: route iv; conditions: in vivo
[6] = Half life in iv dosed rat; format: ADME, organism-based; conditions: in vivo
[7] = Bioavilability in iv dosed rat; format: ADME, organism-based; conditions: in vivo
[8] = Half life in Sprague-Dawley rat at 5 mg/kg, po measured at 0.083 to […] by Liquid chromatography coupled with tandem mass spectrometry analysis; format: ADME, organism-based; conditions: in vivo, time 0.083-0.25 hrs
[9] = Oral bioavailability in Sprague-Dawley rat at 5 mg/kg measured at 0.083 to […] by Liquid chromatography coupled with tandem mass spectrometry analysis; format: ADME, organism-based; conditions: in vivo, time 0.083-0.25 hrs
[10] = Cmax in rat at 10 mg/kg, po measured after 24 hrs by LC/MS/MS analysis; format: ADME, organism-based; design: dose 10 mg/kg, time 24 hrs, route po; conditions: in vivo
[11] = Cmax in dog at 3 mg/kg, po measured after 24 hrs by LC/MS/MS analysis; format: ADME, organism-based, Canis lupus familiaris; design: time 24 hrs, dose 3 mg/kg, route po; conditions: in vivo
[12] = Cmax in Cynomolgus monkey at 10 mg/kg, po measured after 24 hrs by LC/MS/MS analysis; format: ADME, organism-based, Macaca fascicularis; design: dose 10 mg/kg, time 24 hrs, route po; conditions: in vivo
[13] = Tmax in rat at 10 mg/kg, po measured after 24 hrs by LC/MS/MS analysis; format: ADME, organism-based; conditions: in vivo
[14] = Tmax in dog at 3 mg/kg, po measured after 24 hrs by LC/MS/MS analysis; format: ADME, organism-based, Canis lupus familiaris; conditions: in vivo
[15] = Tmax in Cynomolgus monkey at 10 mg/kg, po measured after 24 hrs by LC/MS/MS analysis; format: ADME, organism-based, Macaca fascicularis; conditions: in vivo
[16] = AUC in rat at 10 mg/kg, po measured after 24 hrs by LC/MS/MS analysis; format: ADME, organism-based; design: dose 10 mg/kg, time 24 hrs, route po; conditions: in vivo
[17] = AUC in rat at 1 mg/kg, iv measured after 24 hrs by LC/MS/MS analysis; format: ADME, organism-based; design: dose 1 mg/kg, time 24 hrs, route iv; conditions: in vivo
[18] = AUC in dog at 3 mg/kg, po measured after 24 hrs by LC/MS/MS analysis; format: ADME, organism-based, Canis lupus familiaris; design: dose 3 mg/kg, time 24 hrs, route po; conditions: in vivo
[19] = AUC in Cynomolgus monkey at 10 mg/kg, po measured after 24 hrs by LC/MS/MS analysis; format: ADME, organism-based, Macaca fascicularis; design: dose 10 mg/kg, time 24 hrs, route po; conditions: in vivo
[20] = Half life in rat at 10 mg/kg, po measured after 24 hrs by LC/MS/MS analysis; format: ADME, organism-based; conditions: in vivo
[21] = Half life in rat at 1 mg/kg, iv measured after 24 hrs by LC/MS/MS analysis; format: ADME, organism-based; conditions: in vivo
[22] = Half life in dog at 3 mg/kg, po measured after 24 hrs by LC/MS/MS analysis; format: ADME, organism-based, Canis lupus familiaris; conditions: in vivo
[23] = Half life in Cynomolgus monkey at 10 mg/kg, po measured after 24 hrs by LC/MS/MS analysis; format: ADME, organism-based, Macaca fascicularis; conditions: in vivo
[24] = Clearance in rat at 1 mg/kg, iv measured after 24 hrs by LC/MS/MS analysis; format: ADME, organism-based; conditions: in vivo
[25] = Clearance in dog at 3 mg/kg, po measured after 24 hrs by LC/MS/MS analysis; format: ADME, organism-based, Canis lupus familiaris; conditions: in vivo
[26] = Clearance in Cynomolgus monkey at 10 mg/kg, po measured after 24 hrs by LC/MS/MS analysis; format: ADME, organism-based, Macaca fascicularis; conditions: in vivo
[27] = Volume of distribution in rat at 1 mg/kg, iv measured after 24 hrs by LC/MS/MS analysis; format: ADME, organism-based; conditions: in vivo
[28] = Volume of distribution in dog at 3 mg/kg, po measured after 24 hrs by LC/MS/MS analysis; format: ADME, organism-based, Canis lupus familiaris; conditions: in vivo
[29] = Volume of distribution in Cynomolgus monkey at 10 mg/kg, po measured after 24 hrs by LC/MS/MS analysis; format: ADME, organism-based, Macaca fascicularis; conditions: in vivo
[30] = Oral bioavailability in rat at 10 mg/kg measured after 24 hrs by LC/MS/MS analysis; format: ADME, organism-based; conditions: in vivo
[31] = Oral bioavailability in rat at 1 mg/kg measured after 24 hrs by LC/MS/MS analysis; format: ADME, organism-based; conditions: in vivo
[32] = Oral bioavailability in dog at 3 mg/kg measured after 24 hrs by LC/MS/MS analysis; format: ADME, organism-based, Canis lupus familiaris; conditions: in vivo
[33] = Oral bioavailability in Cynomolgus monkey at 10 mg/kg measured after 24 hrs by LC/MS/MS analysis; format: ADME, organism-based, Macaca fascicularis; conditions: in vivo
[34] = Half life in dog at 0.5 mg/kg, iv measured after 0.083 hrs by liquid chromatography tandem mass spectrometry analysis; format: ADME, organism-based, Canis lupus familiaris; conditions: in vivo
[35] = Half life in rat at 1 mg/kg, iv measured after 0.083 hrs by liquid chromatography tandem mass spectrometry analysis; format: ADME, organism-based; conditions: in vivo
[36] = Oral bioavailability in rat at 2 mg/kg measured at 0.25 to 168 hrs by liquid chromatography tandem mass spectrometry analysis; format: ADME, organism-based; conditions: in vivo, time 0.25-168 hrs
[37] = Clearance in rat at 1 mg/kg, iv measured after 0.083 hrs by liquid chromatography tandem mass spectrometry analysis; format: ADME, organism-based; conditions: in vivo
[38] = Half life in mouse at 1 mg/kg, iv measured after 0.083 hrs by liquid chromatography tandem mass spectrometry analysis; format: ADME, organism-based; conditions: in vivo
[39] = Half life in monkey at 0.5 mg/kg, iv measured after 0.083 hrs by liquid chromatography tandem mass spectrometry analysis; format: ADME, organism-based, Macaca mulatta; conditions: rhesus monkey, in vivo

Compound: CS(=O)(=O)Nc1cccc(NC(=O)CN2CCN(C(=O)C[C@H](N)Cc3ccccc3F)[C@H](Cc3ccccc3)C2)c1
bioavailability [1]: < 1%

Compound: N[C@H]1C[C@@H](N2Cc3nn4c(C(F)(F)F)cc(C(F)(F)F)nc4c3C2)CO[C@@H]1c1cc(F)ccc1F
half-life [2]: 25.4 h | bioavailability [1]: 71% | Cmax [3]: 119 ng/mL | Tmax [4]: 5.3 h | AUC [5]: 3700 ng·h/mL | half-life [6]: 25.4 h | bioavailability [7]: 71%

Compound: N#Cc1ccc(F)cc1Cn1c(N2CCC[C@@H](N)C2)nc2cc(-c3cccnc3)sc2c1=O
half-life [8]: 16.4 h | bioavailability [9]: 94%

Compound: N[C@@H](CC(=O)N1CCSC1)Cc1cc(F)c(F)cc1F
half-life [2]: 1.1 h | bioavailability [1]: 3%

Compound: CC#CCn1c(N2CCC[C@@H](N)C2)nc2c1c(=O)n(Cc1nc3cc(F)ccc3s1)c(=O)n2C
half-life [2]: 7.3 h

The next lines start with the values.

Cmax [10]: 393 ng/mL | Cmax [11]: 447 ng/mL | Cmax [12]: 3210 ng/mL | Tmax [13]: 2.3 h | Tmax [14]: 0.4 h | Tmax [15]: 1 h | AUC at 24 h [16]: 1200 ng·h/mL | AUC at 24 h [17]: 260 ng·h/mL | AUC at 24 h [18]: 1600 ng·h/mL | AUC at 24 h [19]: 16600 ng·h/mL | half-life [20]: 2.8 h | half-life [21]: 1.4 h | half-life [22]: 3 h | half-life [23]: 5.6 h | clearance [24]: 49 mL/min/kg | CL/F [25]: 23 mL/min/kg | CL/F [26]: 8.8 mL/min/kg | Vd [27]: 3.5 L/kg | Vd [28]: 3.5 L/kg | Vd [29]: 2.6 L/kg | bioavailability [30]: 45% | bioavailability [31]: 86% | bioavailability [32]: 68% | bioavailability [33]: 87%
Compound: Cn1c(=O)cc(N2CCC[C@@H](N)C2)n(Cc2ccccc2C#N)c1=O [ALOGLIPTIN]

half-life [34]: 52.8 h | half-life [35]: 28 h | bioavailability [36]: 91% | clearance [37]: 19 mL/min/kg | half-life [38]: 44.4 h | half-life [39]: 61.1 h
Compound: N[C@H]1C[C@@H](N2CC3=C(C2)CS(=O)(=O)C3)CO[C@@H]1c1cc(F)ccc1F

From ChEMBL document CHEMBL5365448, “Development of Long-Acting Dipeptidyl Peptidase-4 Inhibitors: Structural Evolution and Long-Acting Determinants” (J Med Chem, 2023)
